The source made the active and inactive calls.
Columns and labels:
Beta-galactosidase = Beta-galactosidase (Escherichia coli, UniProt Q8VNN2); experiment: Dose response counterscreen for EBI2 assay utilizing the enzyme, b-galactosidase.; type: functional
[1] = biological target: Tyrosine-protein phosphatase non-receptor type 11 (Homo sapiens, UniProt Q06124); experiment: PTPN11 enzyme inhibitors – biochemical, selectivity assay for STEP inhibitor project, dose response (AID 602367); type: functional; settings: read-out: IC50_Mean
[2] = biological target: Dual specificity protein phosphatase 3 (Homo sapiens, UniProt P51452); experiment: VHR phosphatase inhibition, dose response, selectivity assay for STEP inhibitor project, biochemical (AID 602374); type: functional; settings: read-out: IC50_Mean
[3] = biological target: Tyrosine-protein phosphatase non-receptor type 5 (Homo sapiens, UniProt P54829); experiment: PTPN5 enzyme inhibition – biochemical, fluorescence intensity, uHTS hits, confirmation (AID 602372); type: functional; settings: read-out: IC50_Mean
[4] = biological target: T1, High affinity choline transporter 1 (Homo sapiens, UniProt Q9GZV3); experiment: human choline transporter blockers, potency – cell-based, 5-point CRC, membrane potential dye, dose response (AID 504840); type: functional
T1 sequence (Q9GZV3 whole entry): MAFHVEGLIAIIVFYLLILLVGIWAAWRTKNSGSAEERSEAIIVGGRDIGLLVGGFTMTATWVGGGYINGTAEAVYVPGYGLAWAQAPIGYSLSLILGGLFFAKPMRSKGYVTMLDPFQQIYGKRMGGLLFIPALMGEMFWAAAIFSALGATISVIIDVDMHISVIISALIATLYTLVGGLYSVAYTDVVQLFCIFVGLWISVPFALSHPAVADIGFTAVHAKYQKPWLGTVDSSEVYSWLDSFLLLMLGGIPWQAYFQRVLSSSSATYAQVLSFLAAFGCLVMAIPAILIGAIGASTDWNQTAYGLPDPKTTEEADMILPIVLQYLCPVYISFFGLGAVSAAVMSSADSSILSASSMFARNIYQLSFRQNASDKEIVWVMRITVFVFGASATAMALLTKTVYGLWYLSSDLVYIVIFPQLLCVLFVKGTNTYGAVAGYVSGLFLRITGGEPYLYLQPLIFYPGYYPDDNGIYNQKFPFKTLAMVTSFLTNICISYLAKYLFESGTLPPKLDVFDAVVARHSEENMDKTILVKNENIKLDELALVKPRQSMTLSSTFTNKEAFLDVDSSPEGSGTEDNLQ

[5] = biological target: T1, High affinity choline transporter 1; experiment: human choline transporter blockers, potency – cell-based, 10-point CRC, membrane potential dye, dose response (AID 588401); type: functional;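 note: membrane potential dye fluorescence of choline-evoked depolarization via CHT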
[6] = blockers of CRF-binding protein–CRF-R2 complex – cell-based, uHTS hits, 384-well, dose response (AID 651639); type: functional, Homo sapiens; settings: read-out: IC50_Mean
[7] = biological target: Low molecular weight phosphotyrosine protein phosphatase (Homo sapiens, UniProt P24666); type: functional; settings: read-out: IC50_Mean
Beta-lactamase [8] = biological target: Beta-lactamase (Pseudomonas aeruginosa, UniProt Q79MP6);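 note: biochemical dose-response test of metallo-beta-lactamase enzyme inhibition, read out by epi-absorbance; purified recombinant IMP-1 metallo-beta-lactamase with nitrocefin as substrate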
Beta-lactamase [9] = biological target: Beta-lactamase (Salmonella choleraesuis (strain SC-B67), UniProt Q5J463)
Beta Lactamase = Beta Lactamase (Pseudomonas aeruginosa, UniProt Q932Y6);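 note: confirmatory high-throughput screen measuring VIM-2 metallo-beta-lactamase inhibition by epi-absorbance in dose response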
Streptokinase A = biological target: T2, Streptokinase A (Streptococcus pyogenes serotype M1, UniProt P10520); experiment: viability-normalized secreted streptokinase activity reduction – plasminogen activation absorbance, OD405, dose response (AID 1914); type: functional, Streptococcus pyogenes M1 GAS;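 note: secreted streptokinase activity via plasminogen activation per viability signal from cell pellet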
T2 sequence (P10520 whole entry): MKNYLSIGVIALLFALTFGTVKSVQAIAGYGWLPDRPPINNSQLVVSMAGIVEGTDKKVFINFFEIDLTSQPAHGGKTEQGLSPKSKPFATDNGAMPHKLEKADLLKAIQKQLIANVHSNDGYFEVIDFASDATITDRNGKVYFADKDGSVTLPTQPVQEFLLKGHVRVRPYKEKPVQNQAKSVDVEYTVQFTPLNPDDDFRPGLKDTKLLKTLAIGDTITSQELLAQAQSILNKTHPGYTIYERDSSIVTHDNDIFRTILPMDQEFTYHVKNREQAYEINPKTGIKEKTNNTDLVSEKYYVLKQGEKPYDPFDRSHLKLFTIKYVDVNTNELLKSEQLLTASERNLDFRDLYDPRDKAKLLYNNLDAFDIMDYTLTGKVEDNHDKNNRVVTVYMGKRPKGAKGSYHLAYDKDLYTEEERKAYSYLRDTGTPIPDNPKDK

Streptococcus = experiment: GAS UMAA2166 growth inhibition – luminescence, BacTiterGlo, counter-screen for streptokinase expression inhibitor project, dose response (AID 1915); type: functional, organism-based;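 note: potency for reduction of bacterial viability or growth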
[10] = biological target: Matrix metalloproteinase-14 (Homo sapiens, UniProt P50281); experiment: Dose Response confirmation of uHTS hits for a small molecule inhibitors of MT1-MMP activation in a fluorescence assay set 1.; type: functional
[11] = system: Streptococcus sp. 'group A'; experiment: Streptococcus pyogenes SK(-)GAS viability under kanamycin – luminescence, BacTiterGlo, confirmation, counter-screen for streptokinase expression inhibitor project, dose response (AID 1900); type: functional, organism-based
[12] = biological target: Benomyl/methotrexate resistance protein (Candida albicans, UniProt P28873); experiment: Candida albicans Mdr1 pump inhibition curves – singleplex, Cherry Pick1 hits, dose response (AID 588608); type: functional
[13] = biological target: T3, Endoribonuclease toxin MazF (Escherichia coli K-12, UniProt P0AE70); experiment: activation of MazEF endoribonuclease cleavage – biochemical, fluorescence, single-stranded RNA substrate, uHTS hits, dose response (AID 588481); type: functional
T3 sequence (P0AE70 whole entry): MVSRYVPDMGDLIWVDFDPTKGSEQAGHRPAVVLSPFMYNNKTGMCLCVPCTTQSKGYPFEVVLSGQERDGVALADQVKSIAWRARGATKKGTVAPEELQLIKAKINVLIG

[14] = biological target: T3, Endoribonuclease toxin MazF; experiment: substrate-only fluorescence increase artefacts – biochemical, single-stranded RNase substrate, counter-screen for MazEF activator project, dose response (AID 588502); type: functional
[15] = biological target: T4, Carboxy-terminal domain RNA polymerase II polypeptide A small phosphatase 1 (Homo sapiens, UniProt Q9GZU7); experiment: CTDSP1 inhibitors, concentration-response, biochemical, absorbance readout, ultra-high-throughput screen actives (AID 540297); type: functional
T4 sequence (Q9GZU7 whole entry): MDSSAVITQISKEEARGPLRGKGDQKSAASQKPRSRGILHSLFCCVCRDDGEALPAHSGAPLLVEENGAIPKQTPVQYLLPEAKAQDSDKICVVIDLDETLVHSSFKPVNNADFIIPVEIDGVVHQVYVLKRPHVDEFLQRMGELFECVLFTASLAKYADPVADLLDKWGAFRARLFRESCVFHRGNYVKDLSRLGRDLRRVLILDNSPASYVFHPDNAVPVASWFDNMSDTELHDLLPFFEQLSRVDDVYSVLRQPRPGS

Caspase-6 = biological target: T5, Caspase-6 (Homo sapiens, UniProt P55212); experiment: inhibition of CASP6 peptide cleavage – biochemical, VEID-R110 fluorescence, cherry-pick, dose response (AID 720632)
T5 sequence (P55212 whole entry): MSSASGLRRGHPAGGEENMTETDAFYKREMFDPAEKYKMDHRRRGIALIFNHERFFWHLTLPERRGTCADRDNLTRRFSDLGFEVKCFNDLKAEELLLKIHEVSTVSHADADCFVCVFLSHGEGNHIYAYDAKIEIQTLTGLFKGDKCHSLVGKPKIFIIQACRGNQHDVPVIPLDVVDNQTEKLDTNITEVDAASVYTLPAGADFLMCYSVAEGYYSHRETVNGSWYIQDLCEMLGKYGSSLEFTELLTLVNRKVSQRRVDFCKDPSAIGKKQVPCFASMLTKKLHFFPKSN

[16] = Trypanosoma cruzi growth suppression in host cells – NIH3T3 host cells, beta-gal luminescence, confirmation (AID 2044); type: functional, cell-based;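 note: intracellular parasites grown in NIH/3T3 mouse fibroblasts as host cells; luminescent beta-galactosidase reporter signal from transgenic T. cruzi replicating inside host cells; inhibitors lower the luminescence signal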
[17] = inhibition of ARNT PAS-B/TACC3 complex formation – biochemical, AlphaScreen, cherry-picked samples, confirmation (AID 651703); type: functional, Homo sapiens;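 note: His-tagged ARNT PAS-B domain paired with GST-TACC3 E629A dimer coactivator fragment; potency of inhibitors that break up the complex and lower AlphaScreen signal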
[18] = NIH3T3 cell viability loss – ATP luminescence, mouse fibroblasts, counter-screen, dose response (AID 2010); type: functional, cell-based;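 note: cells exposed to compound for about 90 hours before reading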
[19] = bead-based luminescence quenchers, dual-tagged ARNT – biochemical, AlphaScreen, cherry-pick, artefact control for ARNT-TACC3 interaction inhibitor project, dose response (AID 651705); type: functional;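 note: AlphaScreen bead proximity signal that flags compounds interfering with the detection technology; potency reflects signal decrease which marks the compound as an assay artifact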
[20] = biological target: Potassium voltage-gated channel subfamily KQT member 2 (Rattus norvegicus, UniProt O88943); experiment: blockers of KCNQ2 channel current – cell-based, automated electrophysiology, set II, rat KCNQ2, dose response (AID 588637); type: functional
HEK293 = experiment: EBV LMP1 TES2 canonical NF-kB signalling blockers – cell-based, HEK293, luciferase, cherry-pick, dose response (AID 588343); type: functional; settings: Homo sapiens
Interleukin-8 [21] = biological target: T6, Interleukin-8 (Homo sapiens, UniProt P10145); experiment: Dose Response confirmation of uHTS small molecule hits for cystic fibrosis induced NFkb Inhibitors in a TNFa-induced IL8 counterscreen.; type: functional; settings: read-out: IC50_Mean
Interleukin-8 [22] = biological target: T6, Interleukin-8; experiment: Dose Response confirmation of uHTS small molecule hits for cystic fibrosis induced NFkb Inhibitors in a PAF-induced IL8 counterscreen.; type: functional; settings: read-out: IC50_Mean
[23] = biological target: Botulinum neurotoxin type F (Clostridium botulinum, UniProt P30996); experiment: High-throughput multiplex microsphere dose response for inhibitors of toxin protease, specifically Botulinum neurotoxin light chain F protease, compounds from Cherry Pick 02.; type: functional; settings: read-out: EC50_MICROM
[24] = biological target: Botulinum neurotoxin type A (Clostridium botulinum (strain Hall / ATCC 3502 / NCTC 13319 / Type A), UniProt P0DPI1); experiment: High-throughput multiplex microsphere dose response for inhibitors of toxin protease, specifically Botulinum neurotoxin light chain A protease, compounds from Powder Set 01.; type: functional, Clostridium botulinum A str. ATCC 3502; settings: read-out: EC50_MICROM
Lethal factor = Lethal factor (Bacillus anthracis, UniProt P15917); experiment: High-throughput multiplex microsphere dose response for inhibitors of toxin protease, specifically Lethal Factor protease, compounds from Powder Set 01.; type: functional, Bacillus anthracis str. A2012; settings: read-out: EC50_MICROM
[25] = inhibitors of EBV LMP1 NF-kappaB signaling – cell-based, luciferase reporter, luminescence, dry powder, set 2, dose response (AID 624376); type: functional

T6 sequence (P10145 whole entry): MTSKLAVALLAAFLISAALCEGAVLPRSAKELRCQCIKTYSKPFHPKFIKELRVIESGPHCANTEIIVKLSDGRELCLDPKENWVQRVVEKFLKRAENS
Chain of Benomyl/methotrexate resistance protein (P28873 whole entry): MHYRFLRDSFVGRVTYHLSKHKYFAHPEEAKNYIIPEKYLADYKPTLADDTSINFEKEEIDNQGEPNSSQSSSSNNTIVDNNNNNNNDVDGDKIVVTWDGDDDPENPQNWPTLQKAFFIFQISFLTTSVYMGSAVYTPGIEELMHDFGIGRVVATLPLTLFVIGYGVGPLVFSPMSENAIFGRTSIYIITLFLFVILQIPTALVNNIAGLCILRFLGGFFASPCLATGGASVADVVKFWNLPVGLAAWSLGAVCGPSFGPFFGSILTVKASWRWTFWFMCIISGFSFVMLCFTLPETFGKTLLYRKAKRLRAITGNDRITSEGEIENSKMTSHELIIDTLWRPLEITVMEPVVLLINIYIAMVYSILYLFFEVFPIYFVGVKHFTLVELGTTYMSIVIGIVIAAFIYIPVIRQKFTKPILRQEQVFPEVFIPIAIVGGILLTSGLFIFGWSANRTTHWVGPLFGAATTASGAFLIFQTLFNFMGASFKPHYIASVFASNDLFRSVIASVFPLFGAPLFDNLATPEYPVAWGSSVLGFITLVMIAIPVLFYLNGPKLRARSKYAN
Chain of Beta-lactamase (Salmonella choleraesuis (strain SC-B67), UniProt Q5J463) (Q5J463 whole entry): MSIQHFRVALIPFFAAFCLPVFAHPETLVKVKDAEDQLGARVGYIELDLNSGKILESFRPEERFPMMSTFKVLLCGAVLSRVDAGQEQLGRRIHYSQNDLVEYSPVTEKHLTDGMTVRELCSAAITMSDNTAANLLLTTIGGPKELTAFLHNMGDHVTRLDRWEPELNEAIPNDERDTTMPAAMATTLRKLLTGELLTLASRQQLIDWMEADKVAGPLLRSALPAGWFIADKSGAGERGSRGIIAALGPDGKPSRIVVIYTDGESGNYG
Chain of Tyrosine-protein phosphatase non-receptor type 11 (Q06124 whole entry): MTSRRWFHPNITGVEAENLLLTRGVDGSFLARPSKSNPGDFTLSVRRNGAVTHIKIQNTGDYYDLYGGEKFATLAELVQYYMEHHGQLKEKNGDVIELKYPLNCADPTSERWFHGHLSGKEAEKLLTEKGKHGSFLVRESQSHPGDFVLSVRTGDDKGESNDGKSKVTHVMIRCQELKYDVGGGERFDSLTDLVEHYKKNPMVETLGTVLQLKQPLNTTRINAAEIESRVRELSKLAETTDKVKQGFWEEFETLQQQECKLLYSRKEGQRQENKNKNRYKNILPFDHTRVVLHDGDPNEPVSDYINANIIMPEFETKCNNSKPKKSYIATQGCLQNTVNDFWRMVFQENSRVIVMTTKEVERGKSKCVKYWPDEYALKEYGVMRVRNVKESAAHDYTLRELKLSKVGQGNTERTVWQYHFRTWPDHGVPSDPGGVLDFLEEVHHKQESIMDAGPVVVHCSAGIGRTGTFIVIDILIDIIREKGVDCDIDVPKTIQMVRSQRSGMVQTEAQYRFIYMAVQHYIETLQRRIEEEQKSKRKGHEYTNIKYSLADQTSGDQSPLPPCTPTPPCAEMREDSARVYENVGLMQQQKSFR
Chain of Lethal factor (P15917 whole entry): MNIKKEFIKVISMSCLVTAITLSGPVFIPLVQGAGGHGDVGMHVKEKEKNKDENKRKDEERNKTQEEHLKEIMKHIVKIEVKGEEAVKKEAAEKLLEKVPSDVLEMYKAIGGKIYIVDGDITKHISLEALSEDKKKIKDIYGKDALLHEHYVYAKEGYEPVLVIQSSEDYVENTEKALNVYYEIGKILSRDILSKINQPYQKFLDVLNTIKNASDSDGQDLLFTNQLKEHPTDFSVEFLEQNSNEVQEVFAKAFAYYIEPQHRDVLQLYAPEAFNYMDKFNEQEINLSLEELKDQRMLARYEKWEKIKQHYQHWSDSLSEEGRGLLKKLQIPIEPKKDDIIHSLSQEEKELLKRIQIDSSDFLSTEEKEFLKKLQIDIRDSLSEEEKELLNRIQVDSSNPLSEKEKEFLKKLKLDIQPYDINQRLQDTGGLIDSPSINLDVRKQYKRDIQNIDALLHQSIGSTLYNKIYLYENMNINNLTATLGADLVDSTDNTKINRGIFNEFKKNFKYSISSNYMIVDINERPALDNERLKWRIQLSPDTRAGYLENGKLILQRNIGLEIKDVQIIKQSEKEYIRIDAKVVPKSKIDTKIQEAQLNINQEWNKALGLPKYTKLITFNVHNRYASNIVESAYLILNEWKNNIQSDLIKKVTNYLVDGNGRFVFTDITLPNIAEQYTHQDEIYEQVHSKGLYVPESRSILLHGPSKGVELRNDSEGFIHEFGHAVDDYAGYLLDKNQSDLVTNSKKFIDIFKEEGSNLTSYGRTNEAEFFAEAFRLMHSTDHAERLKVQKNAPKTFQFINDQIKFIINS
Chain of Tyrosine-protein phosphatase non-receptor type 5 (P54829 whole entry): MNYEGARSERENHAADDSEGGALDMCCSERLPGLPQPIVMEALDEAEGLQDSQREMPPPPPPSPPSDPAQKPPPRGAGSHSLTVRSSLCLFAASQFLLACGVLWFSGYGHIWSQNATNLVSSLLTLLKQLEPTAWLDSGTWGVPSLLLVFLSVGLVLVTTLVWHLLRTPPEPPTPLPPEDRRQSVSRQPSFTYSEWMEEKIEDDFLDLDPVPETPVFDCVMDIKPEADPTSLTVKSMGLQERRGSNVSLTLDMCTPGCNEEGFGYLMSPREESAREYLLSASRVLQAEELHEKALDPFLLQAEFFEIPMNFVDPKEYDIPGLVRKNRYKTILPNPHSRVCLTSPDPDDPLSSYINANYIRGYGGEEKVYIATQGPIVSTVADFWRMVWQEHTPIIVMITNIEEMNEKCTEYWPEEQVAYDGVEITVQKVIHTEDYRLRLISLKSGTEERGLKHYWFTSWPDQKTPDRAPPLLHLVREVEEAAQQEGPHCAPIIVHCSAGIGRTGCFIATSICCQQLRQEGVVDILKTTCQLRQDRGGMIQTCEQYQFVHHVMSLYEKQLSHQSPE
Chain of Beta-galactosidase (Q8VNN2 whole entry): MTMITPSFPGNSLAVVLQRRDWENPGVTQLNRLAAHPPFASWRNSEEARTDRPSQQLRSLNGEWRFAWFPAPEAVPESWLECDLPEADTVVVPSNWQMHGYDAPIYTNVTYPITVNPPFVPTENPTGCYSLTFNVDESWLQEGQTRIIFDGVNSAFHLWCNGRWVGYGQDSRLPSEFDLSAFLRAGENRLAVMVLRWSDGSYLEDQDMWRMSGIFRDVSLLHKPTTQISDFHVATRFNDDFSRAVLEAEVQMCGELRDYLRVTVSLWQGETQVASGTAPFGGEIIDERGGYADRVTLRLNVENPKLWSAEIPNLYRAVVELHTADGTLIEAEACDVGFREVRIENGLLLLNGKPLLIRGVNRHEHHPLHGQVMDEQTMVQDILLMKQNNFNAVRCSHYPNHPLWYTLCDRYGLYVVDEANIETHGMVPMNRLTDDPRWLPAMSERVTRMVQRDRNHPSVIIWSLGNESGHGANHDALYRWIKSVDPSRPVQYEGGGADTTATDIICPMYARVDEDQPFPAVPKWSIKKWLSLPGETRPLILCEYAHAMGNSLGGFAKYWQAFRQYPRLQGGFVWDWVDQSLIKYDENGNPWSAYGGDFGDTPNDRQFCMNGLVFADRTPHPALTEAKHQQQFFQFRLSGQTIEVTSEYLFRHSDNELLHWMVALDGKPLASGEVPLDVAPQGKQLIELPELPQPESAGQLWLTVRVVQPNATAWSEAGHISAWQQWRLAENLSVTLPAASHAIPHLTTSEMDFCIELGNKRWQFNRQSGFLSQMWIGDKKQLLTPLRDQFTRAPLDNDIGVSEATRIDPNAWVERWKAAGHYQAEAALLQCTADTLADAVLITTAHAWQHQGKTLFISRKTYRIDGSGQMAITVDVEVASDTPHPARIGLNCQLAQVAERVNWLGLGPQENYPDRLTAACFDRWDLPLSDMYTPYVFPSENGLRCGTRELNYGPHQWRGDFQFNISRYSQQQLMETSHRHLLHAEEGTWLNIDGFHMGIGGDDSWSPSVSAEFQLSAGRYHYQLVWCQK
Chain of Beta Lactamase (Q932Y6 whole entry): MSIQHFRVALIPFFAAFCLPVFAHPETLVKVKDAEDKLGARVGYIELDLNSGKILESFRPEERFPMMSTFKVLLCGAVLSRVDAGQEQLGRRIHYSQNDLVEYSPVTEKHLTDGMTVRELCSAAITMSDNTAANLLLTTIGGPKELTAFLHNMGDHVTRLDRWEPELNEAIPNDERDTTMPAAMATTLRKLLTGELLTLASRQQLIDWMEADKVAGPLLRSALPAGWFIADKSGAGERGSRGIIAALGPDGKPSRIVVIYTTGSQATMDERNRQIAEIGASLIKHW
Chain of Botulinum neurotoxin type A (P0DPI1 2-448 limits assumed): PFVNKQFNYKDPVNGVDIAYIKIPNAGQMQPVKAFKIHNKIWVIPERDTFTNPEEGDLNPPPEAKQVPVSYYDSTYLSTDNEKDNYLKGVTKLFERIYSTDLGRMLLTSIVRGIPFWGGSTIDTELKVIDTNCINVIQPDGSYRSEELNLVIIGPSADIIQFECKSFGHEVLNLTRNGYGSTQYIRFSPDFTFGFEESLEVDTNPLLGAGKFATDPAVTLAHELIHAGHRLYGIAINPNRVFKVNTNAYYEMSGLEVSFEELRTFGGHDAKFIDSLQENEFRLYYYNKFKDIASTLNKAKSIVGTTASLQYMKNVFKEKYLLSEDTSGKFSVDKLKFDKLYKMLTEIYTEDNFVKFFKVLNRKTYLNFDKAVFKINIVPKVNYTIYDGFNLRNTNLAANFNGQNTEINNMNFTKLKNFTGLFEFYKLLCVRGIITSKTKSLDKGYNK
Chain of Low molecular weight phosphotyrosine protein phosphatase (P24666 whole entry): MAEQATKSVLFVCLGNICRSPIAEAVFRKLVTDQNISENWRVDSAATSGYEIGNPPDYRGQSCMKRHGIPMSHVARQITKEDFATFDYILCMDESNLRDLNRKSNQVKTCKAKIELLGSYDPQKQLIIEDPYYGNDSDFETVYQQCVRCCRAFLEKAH

SMILES: O=C(/C=C/c1ccc(Cl)cc1)N1CCN(Cc2ccccc2)CC1
- IC50 (Beta-galactosidase): > 80 µM (inactive)

SMILES: Cc1ccc(NC(=O)CN2C(=O)S/C(=C\c3ccc(OCC(=O)O)c(Br)c3)C2=O)cc1
- IC50 [1]: 6.33 µM (active)
- IC50 [2]: 6.91 µM (active)
- IC50 [3]: > 80 µM (inactive)

SMILES: CC(=O)OC1CC2(C)C(=O)CCC2C2CCc3cc(O)ccc3C12 (centres undefined)
- IC50 [4]: 9.28 µM (active)
- IC50 [5]: 3.36 µM (active)

SMILES: Cc1sc2nc(CN(Cc3cccs3)C(=O)NC3CCCCC3)nc(O)c2c1C
- IC50 [6]: 19.7 µM (active)

SMILES: O=C(O)[C@@H]1[C@H]2C[C@H]3c4[nH]c5ccccc5c4CCN3C[C@@H]2CC[C@@H]1O
- IC50 [7]: 67.6 µM (inactive)

SMILES: CC(=O)N(c1cccc(C)c1)C1SC(=O)N(c2ccccc2)C1=O (centres undefined)
- IC50 (Beta-lactamase [8]): 30.8 µM (inactive)
- IC50 (Beta-lactamase [9]): > 59.6 µM (inactive)
- IC50 (Beta Lactamase): 54.3 µM (inactive)

SMILES: N#CC(C#N)=NNc1ccc([N+](=O)[O-])cc1
- EC50 (Streptokinase A): > 150 µM (not active)
- EC50 (Streptococcus): 9.99 µM (active)
- IC50 [10]: 32.3 µM (inactive)
- EC50 [11]: 3.82 µM (active)

SMILES: COc1ccc(/C=C2\SC(c3ccc(C)cc3)=NC2=O)cc1OC
- EC50 [12]: 5.12 µM (active)
- EC50 [13]: > 99 µM (inactive)
- EC50 [14]: > 99 µM (inactive)

SMILES: COc1ccc(CC(=O)Nc2ncc([N+](=O)[O-])s2)cc1OC
- IC50 [15]: 3.21 µM (active)
- AC50 (Caspase-6): 2.89 µM (active)
- EC50 [16]: 1.27 µM (active)
- AC50 [17]: 112 µM (active)
- EC50 [18]: > 60 µM (not active)
- AC50 [19]: 117 µM (active)

SMILES: O=C(CN1C(=O)C(c2ccccc2)Oc2cccnc21)NCc1ccccc1F (centres undefined)
- IC50 [20]: 1.81 µM (active)

SMILES: O=C(Nc1ccc(C(=O)N2CCOCC2)cc1)Nc1cccc(C(F)(F)F)c1
- AC50 (HEK293): 3.04 µM (active)
- IC50 (Interleukin-8 [21]): > 79 µM (inactive)
- IC50 (Interleukin-8 [22]): 41.9 µM (inactive)

SMILES: O=C(C[n+]1cccc(Br)c1)c1ccccc1
- IC50 [4]: 3.23 µM (active)
- IC50 [5]: 2.84 µM (active)

SMILES: Cc1cc2nc(-c3cccc(Br)c3)c(Cc3cccc(Cl)c3)n2c(C)c1Br
- EC50 [23]: > 20 µM (inactive)

SMILES: COc1ccc(-c2cn3nc(-c4ccccc4)c(-c4ccccc4)nc3n2)cc1
- EC50 [24]: 4 µM (active)
- EC50 (Lethal factor): 3.3 µM (active)

SMILES: O=C(Cc1ccccn1)NCC[C@H]1CC[C@H](NC(=O)Nc2ccc(Cl)cc2)[C@H](CO)O1
- AbsAC35 [25]: 142.06 µM

From ChEMBL document CHEMBL1201862, “PubChem BioAssay data set” (2004)
